Target: T1, PatD (Prochloron didemni, UniProt Q52QI6)
T1 sequence (Q52QI6 1-784): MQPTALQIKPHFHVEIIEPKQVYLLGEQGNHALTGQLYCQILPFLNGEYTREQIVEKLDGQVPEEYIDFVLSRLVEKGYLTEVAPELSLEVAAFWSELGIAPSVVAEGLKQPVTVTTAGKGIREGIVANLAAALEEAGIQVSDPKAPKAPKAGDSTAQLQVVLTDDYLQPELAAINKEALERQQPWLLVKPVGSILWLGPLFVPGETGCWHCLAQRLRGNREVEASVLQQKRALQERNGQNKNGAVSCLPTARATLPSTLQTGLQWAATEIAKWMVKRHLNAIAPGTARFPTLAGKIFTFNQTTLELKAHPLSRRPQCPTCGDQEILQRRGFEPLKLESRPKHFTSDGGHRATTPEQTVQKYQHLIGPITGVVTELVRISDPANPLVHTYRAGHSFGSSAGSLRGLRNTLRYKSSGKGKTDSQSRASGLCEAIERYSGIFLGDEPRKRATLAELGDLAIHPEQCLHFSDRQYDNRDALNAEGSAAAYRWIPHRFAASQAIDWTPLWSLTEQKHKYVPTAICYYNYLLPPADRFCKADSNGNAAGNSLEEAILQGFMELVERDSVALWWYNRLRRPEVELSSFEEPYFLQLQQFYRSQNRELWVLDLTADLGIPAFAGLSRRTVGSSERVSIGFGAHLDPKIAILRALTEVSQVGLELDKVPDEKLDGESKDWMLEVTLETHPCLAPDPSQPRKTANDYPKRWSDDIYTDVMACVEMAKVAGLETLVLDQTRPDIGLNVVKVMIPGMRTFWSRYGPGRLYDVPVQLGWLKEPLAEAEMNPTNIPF
Details: ATP 100 μM, TruE2 2 μM, PatD 0.6 μM, MgCl2, DTT, 30 min

In the case of Nc1ncnc2c1ncn2[C@@H]1O[C@H](COP(=O)(O)OP(=O)(O)OP(=O)(O)O)[C@@H](O)[C@H]1O [ATP], the “HPLC of ATP hydrolysis to ADP” value is reported as “ATP was shown to be hydrolyzed to ADP”.
